# In patent publication US8165823B2, “Pamps, pathogen associated molecular patterns” (Novartis AG, priority 2005, dated 2012):
# Tests used:
# [1] = tested on: human monocytic cell line THP-1; experiment: Cytokine production by THP-1 cells after peptide stimulation; type: cell-based; details: for Cytokine production IL-1β / Cytokine production IL-8 / Cytokine production TNF-α: culture supernatant after 18 hours with peptide
# Experimental: (§1) For the assay, the human cells used were cultured at 1 million cells/ml in 96-well plates with the peptides in complete RPMI medium with 5% FBS. After culture for 18 hours at 37° C. and 5% CO2, the culture supernatants were measured for the cytokines generated by the cells with an Upstate multiplex cytokine kit.
# cells in vitro = details: cited from earlier work
# [2] = tested on: primary human peripheral blood mononuclear cells (hPBMC); experiment: Cytokine production by primary hPBMC after peptide stimulation; type: cell-based
# Experimental: The possible combinations of sequences included PDCGLR, PDCGLK, PDCGMR, and PDCGMK. […] Therefore, the specific peptide sequence PDCGLR, which was identified as a bacterial signature found commonly in bacterial proteins but not in Drosophila, is recognised by the human immune system as a PAMP.
# as §1
# [3] = hPBMC #1643, culture supernatant after 18 hours with peptide
Substance,Cytokine production IL-1β [1],Cytokine production IL-8 [1],Cytokine production TNF-α [1],Induction of cytokine production from cells in vitro (cells in vitro),Cytokine production (IL-6 and TNFα) ([2]; hPBMC),"Cytokine production IL-6 [2, 3]","Cytokine production TNF-α [2, 3]","Adjuvant activity, as measured by the specific production of cytokines (IL1-β, IL-8 and TNFα) [1]"
PDCGLK,1.33 pg/mL,24.29 pg/mL,<1 pg/mL,,,,,
PDCGMK,1.59 pg/mL,19.28 pg/mL,<1 pg/mL,,,,,
PDCGMR,1.61 pg/mL,25.71 pg/mL,<1 pg/mL,,,,,
ALTTE [5-mer peptide from a bacterial fimbriae protein],,,,shown to induce cytokine production from cells in vitro,,,,
PDCGLR,11.32 pg/mL,171.11 pg/mL,4.42 pg/mL,,cytokine production (IL-6 and TNFα) was also demonstrated,31.42 pg/mL,3.6 pg/mL,adjuvant activity was observed
